Results from patent US12661369B2, “Muscular atrophy inhibitor and method for inhibiting muscular atrophy” (YAMASA CORPORATION, priority 2020, dated 2026).
Entries after “also recorded” stand apart in the source; their conditions may differ.

Experiments:
Assay type in all cases: cell-based, Mouse
Atrogin-1 = Atrogin-1 mRNA expression in dexamethasone-treated C2C12 myotube cells (Example 4); conditions: 48 hours pretreatment, then 1 μM dexamethasone plus test substance 24 hours, corrected by β-actin
Method: (§1) Mouse myoblast cell line C2C12 cells were suspended in growth medium, seeded in 24-well plates, and incubated in a 37° C., 5% C02 incubator until the cell density reached 70-90%. The growth medium was removed, and exchanged to a differentiation induction medium. The cells were cultured for 6 days while exchanging the medium once every 2 days and differentiated into myotube cells. The medium was removed and exchanged to a differentiation induction medium or a differentiation induction medium containing a test substance. After 48 hours, the medium was removed and replaced with a differentiation induction medium, a differentiation induction medium supplemented only with 1 μM dexamethasone, or a medium supplemented with 1 μM dexamethasone and test substances (a certain amount of UMP (disodium uridylate), a certain amount of Urd (uridine), and […]).
(§2) After 24 hours, the medium was removed and total RNA was extracted from the cells using RNeasy Mini kit (QIAGEN) or NucleoSpin RNA (Takara Bio).
(§3) Using the total RNA as a template, a reverse transcription reaction solution was prepared using the ReverTra Ace(R) qPCR RT Kit (Toyobo). […] Analysis was performed by relative quantification, and mRNA expression levels were corrected using the β-actin mRNA expression level as an endogenous control. […]

[1] = system: C2C12 cells differentiated into myotube cells; assay: Dexamethasone-induced myotube atrophy in C2C12 cells, myotube cell diameter (Example 1-2, also used for Examples 2 and 3)
Method: (§4) Mouse myoblast cell line C2C12 cells (RIKEN BRC, RCB0987) were suspended in growth medium (Dulbecco's modified Eagle's Medium supplemented with 10% FBS, 100 units/ml of penicillin, 100 μg/ml of streptomycin), seeded in 24-well plates, and incubated in a 37° C., 5% CO2 incubator until the cell density reached 70-90%.
The growth medium was removed, and exchanged to a differentiation induction medium (Dulbecco's modified Eagle's Medium supplemented with 2% adult bovine serum, 100 units/ml of penicillin, 100 μg/ml of streptomycin). The cells were cultured for 4 days while exchanging the medium once every 2 days and differentiated into myotube cells. The medium was removed and exchanged to the following media: • (1) Differentiation induction medium containing no dexamethasone [Dex (−)]; • (2) Differentiation induction medium containing 100 μM dexamethasone [Dex (+)]; • (3) Differentiation induction medium containing 100 μM dexamethasone and a certain amount of disodium cytidylate [Dex (+), a certain amount of CMP]; • (4) Differentiation induction medium containing 100 μM dexamethasone and a certain amount of cytidine [Dex (+), a certain amount of cytidine (which may be abbreviated as “Cyd”)]; • (5) Differentiation induction medium containing 100 μM dexamethasone and a certain amount of disodium uridylate [Dex (+), certain amount of UMP]; and • (6) Differentiation induction medium containing 100 μM dexamethasone and a certain amount of uridine [Dex (+), certain amount of uridine].
After culturing the cells for 3 days, five positions near the center of the wells were photographed at magnifications of 100. Using ImageJ image analysis software, the diameters of 10 myotube cells per a photograph were measured in the order from the myotube cell having the largest diameter, and an average of 50 cells was determined to be the diameter of the myotube cell in each well. Statistical analysis was performed by t-test or Dunnett's multiple comparison test using the differentiation induction medium treatment group supplemented only with 100 μM dexamethasone as a control. The threshold for statistical significance was set to 5%.
Cytidylic acid and uridylic were added to the medium at the concentrations shown in FIG. 7 so that the total concentration of cytidylic acid and uridylic acid was 1000 μM.
In Example 2, the total concentration of cytidylic acid/uridylic acid added to the medium was adjusted to 1000 μM and a ratio of the cytidylic acid/uridylic acid was varied.
Similarly, the effect of the combination of cytidine and uridine were also evaluated.

[2] = system: C2C12 cells differentiated into myotube cells; assay: Dexamethasone-induced myotube atrophy in C2C12 cells, myotube cell diameter (Example 1-1); conditions: 100 μM dexamethasone plus 2 mM or 5 mM disodium uridylate, 48 hours, vs Dex (+), UMP (−)
Method: as §4, with “C02” for “CO2”
The growth medium was removed, and exchanged to a differentiation induction medium (Dulbecco's modified Eagle's Medium supplemented with 2% adult bovine serum, 100 units/ml of penicillin, 100 μg/ml of streptomycin). The cells were cultured for 4 days while exchanging the medium once every 2 days and differentiated into myotube cells. […]
After 24 hours, the medium was changed again. […] Using ImageJ image analysis software, the diameters of 10 myotube cells per a photograph were measured in the order from the myotube cell having the largest diameter, and an average of 50 cells was determined to be the diameter of the myotube cell in each well. […]

MuRF1 = MuRF1 mRNA expression in dexamethasone-treated C2C12 myotube cells (Example 4); conditions: 48 hours pretreatment, then 1 μM dexamethasone plus test substance 24 hours, corrected by β-actin
Method: as §1, §2, §3

[3] = Example 1-2, 100 μM dexamethasone plus a certain amount of test substance, 3 days, vs Dex (+) only
[4] = Example 3, 100 μM dexamethasone plus single test substance

SMILES	mRNA expression level of Atrogin-1 (Atrogin-1)	myotube cell diameter [1, 3]	myotube cell diameter [1, 4]	myotube cell diameter [2]	mRNA expression level of MuRF1 (MuRF1)
O=c1ccn([C@@H]2O[C@H](COP(=O)(O)O)[C@@H](O)[C@H]2O)c(=O)[nH]1 [uridylic acid]	decreased; also recorded: excellent inhibiting effect	significantly increased; also recorded: myotube cell atrophy inhibiting effect	significantly increased	the reduction was suppressed	decreased; also recorded: excellent inhibiting effect
Nc1ccn([C@@H]2O[C@H](CO)[C@@H](O)[C@H]2O)c(=O)n1 [cytidine]		significantly increased; also recorded: myotube cell atrophy inhibiting effect	significantly increased		
Nc1ccn([C@@H]2O[C@H](COP(=O)(O)O)[C@@H](O)[C@H]2O)c(=O)n1 [cytidylic acid]		significantly increased; also recorded: myotube cell atrophy inhibiting effect	significantly increased		
O=c1ccn([C@@H]2O[C@H](CO)[C@@H](O)[C@H]2O)c(=O)[nH]1 [uridine]	decreased; also recorded: excellent inhibiting effect	significantly increased; also recorded: myotube cell atrophy inhibiting effect	significantly increased		decreased; also recorded: excellent inhibiting effect
